Laboratory results: US4831170A, “Pharmaceutically active phospino-hydrocarbon-group VIII-metal complexes, antitumor compositions containing these complexes, and a process for preparing said compounds or antitumor compositions” (priority 1985, dated 1989)

Experiments:
[1] = Struck et al., J. Med. Chem., 9, 414 (1966); cited from earlier work
[2] = system: B16-F10 murine melanoma cells; test: In vitro cytotoxicity, B16-F10 murine melanoma cells (72 h, crystal violet); format: cell-based
Experimental: (§1) Logarithmically growing cells were harvested by mild trypsinization and 4000 cells were added to each well of a 96-well microtiter plate (Costar). […] The cells were then treated with a metal complex or cisplatin and incubated for 72 hours. The plates were inverted and shaken to remove media, drug and detached cells. […] The fixative was removed, the plates air dried, stained with 0.0075% crystal violet for 15 minutes, washed twice and air dried. The stain was solubilized with 0.2 ml of 0.1 M AcOH/EtOH (1:1) and optical densities determined using a Dynatech MR600 microtiter plate reader. […] The compounds were prepared for in vivo treatment by dissolving or suspending, with the addition of minimal amounts of Tween 80, in water.

[3] = system: HCT-116 human colon carcinoma cells; test: In vitro cytotoxicity, HCT-116 human colon carcinoma cells (72 h, crystal violet); format: cell-based; conditions: HCT-116 cells
Experimental: as §1

L1210 murine leukemia = test: Antitumor activity against L1210 murine leukemia in CDF1 mice; format: in vivo; conditions: day 1; for L1210 Dose producing the maximum % T/C: administered ip; for L1210 Max. % T/C: median survival time treated/saline control x 100, ip, active if ≥125
Experimental: (§2) All of the metal complexes were tested for antitumor activity against P388 murine leukemia. Selected compounds were also tested for antitumor activity against L1210 murine leukemia and a subline of L1210 murine leukemia resistant to cisplatin (L1210:DDP). CDF1 mice weighing 20 grams were inoculated intraperitoneally with 10^6 ascites cells of P388 leukemia, L1210 leukemia or L1210:DDP leukemia, depending on the test system being used. Drug administration was initiated the day following tumor implantation in all test systems. The complexes were administered at various dose levels by intraperitoneal injection. Groups of four to six mice were used for each dose level and they were treated with the complex on day one only. A group of ten saline treated control mice was included in each experiment. Cisplatin treated groups were included as a positive control in each experiment. The mice were weighed before treatment and again on day five or six and the average weight change used as a measure of toxicity. The animals were observed daily for mortality and the experiments terminated after 30 days. Antitumor activity was determined based on % T/C, which is the ratio of the median survival time of the drug treated group to the median survival time of the saline treated control group times 100. The saline treated mice usually have a median survival time of 9 days with P388 leukemia and 7 days with L1210 and L1210/DDP leukemia. A complex is considered active if it produces a % T/C of ≥125.
(§3) Tables II and IIa contain summaries of the evaluations of the compounds for antitumor activity against the murine leukemias. Listed for each compound is the maximum % T/C achieved and the dose producing that effect.
(§4) For the in vitro cytotoxicity studies the drugs were dissolved or suspended, depending on their solubility, in 0.9% NaCl solution. Occasionally, 5% dextrose in water or 10% DMSO in 0.9% NaCl was used. The compounds were prepared for in vivo treatment by dissolving or suspending, with the addition of minimal amounts of Tween 80, in water.

P388 murine leukemia = test: Antitumor activity against P388 murine leukemia in CDF1 mice; format: in vivo; conditions: 1 x on day 1; for P 388 Dose producing the maximum % T/C: administered ip; for P 388 Maximum % T/C: median survival time treated/saline control x 100, ip, active if ≥125
Experimental: as §2, §3, §4

[4] = system: L1210 murine leukemia resistant to cisplatin (L1210:DDP); test: Antitumor activity against cisplatin-resistant L1210 murine leukemia (L1210/DDP) in CDF1 mice; format: in vivo; conditions: cisplatin-resistant subline, day 1; for L1210/DDP Dose producing the maximum % T/C: administered ip; for L1210/DDP Max. % T/C: done concomitantly with L1210 test, ip, active if ≥125
Experimental: as §2, §3, §4

B16 Melanoma = test: Antitumor activity against B16 Melanoma in BDF1 mice; format: in vivo; conditions: for B 16 Dose producing the maximum % T/C: administered ip, days 1-9; for B 16 Maximum % T/C: median survival time vs saline control, ip, daily days 1-9, active if ≥125, figures separated by slashes are from separate experiments
Experimental: Several of the metal complexes were additionally evaluated for antitumor activity against B16 Melanoma. BDF1 mice, 10 per group, were inoculated intraperitoneally with 0.5 ml of a 10 percent (w:v) brei of B16 Melanoma. Intraperitoneal treatment with the metal complexes was initiated one day after implant and continued daily for a total of nine days. From 4 to 5 doses were tested for each compound under study. A saline treated control group and cisplatin treated groups were included in each experiment. The mice were observed daily for survivors and the experiments terminated after 60 days. […] The median survival time of the drug treated mice relative to that of the controls (% T/C) was used as a measure of antitumor activity.
Occasionally, 5% dextrose in water or 10% DMSO in 0.9% NaCl was used. The compounds were prepared for in vivo treatment by dissolving or suspending, with the addition of minimal amounts of Tween 80, in water.

| Compound | cytotoxic activity [1] | IC 50 (concentration which inhibits cell growth by 50%), B 16 [2] [µg/mL] | IC 50 (concentration which inhibits cell growth by 50%), HCT 116 [3] [µg/mL] | L1210 Dose producing the maximum % T/C (L1210 murine leukemia) | L1210 Max. % T/C (L1210 murine leukemia) [% T/C] | P 388 Dose producing the maximum % T/C (P388 murine leukemia) [mg/kg] | P 388 Maximum % T/C (P388 murine leukemia) [% T/C] | L1210/DDP Dose producing the maximum % T/C [4] [mg/kg] | L1210/DDP Max. % T/C [4] [% T/C] | B 16 Dose producing the maximum % T/C (B16 Melanoma) [mg/kg/inj.] | B 16 Maximum % T/C (B16 Melanoma) [% T/C] |
| --- | --- | --- | --- | --- | --- | --- | --- | --- | --- | --- | --- |
| c1ccc(P(CCP(c2ccccc2)c2ccccc2)c2ccccc2)cc1 [1,2-bis-(diphenylphosphino)ethane, 1,2-bis(diphenylphosphino)ethane] | cytotoxic activity |  |  |  |  |  |  |  |  |  |  |
| O=[N+]([O-])[O-].O=[N+]([O-])[O-].[Pd+2].c1ccc(P(CCP(c2ccccc2)c2ccccc2)c2ccccc2)cc1.c1ccc(P(CCP(c2ccccc2)c2ccccc2)c2ccccc2)cc1 [TNO 345, Bis[1,2-bis(diphenylphosphino)ethane]palladium(II) dinitrate] |  | 4.0 | 19.6 | 0,8 mg/kg | 100 |  |  |  |  |  |  |
| O=[N+]([O-])[O-].O=[N+]([O-])[O-].[Co+2].c1ccc(P(CCP(c2ccccc2)c2ccccc2)c2ccccc2)cc1.c1ccc(P(CCP(c2ccccc2)c2ccccc2)c2ccccc2)cc1 [TNO 347, Bis[1,2-bis(diphenylphosphino)ethane]nitrato cobalt(II) nitrate] |  | 413 | > 500 | 100 mg/kg | 100 | 100 | 161 | 50 | 150 | 20 | 171 |
| O=[N+]([O-])[O-].O=[N+]([O-])[O-].[Ni+2].c1ccc(P(CCP(c2ccccc2)c2ccccc2)c2ccccc2)cc1.c1ccc(P(CCP(c2ccccc2)c2ccccc2)c2ccccc2)cc1 [TNO 354, Bis[1,2-bis(diphenylphosphino)ethane]nickel(II) dinitrate] |  | 4.1 | 1.3 | 80 mg/kg | 100 | 50 | 139 | 80 | 138 | 30 | 183 |
| C(=CP(c1ccccc1)c1ccccc1)P(c1ccccc1)c1ccccc1.C(=CP(c1ccccc1)c1ccccc1)P(c1ccccc1)c1ccccc1.[Cl-].[Cl-].[Fe+2] [TNO 396, Bis[cis-1,2-bis(diphenylphosphino)ethylene]dichloro iron(II)] |  | 452 | 383 |  |  | 200 | 150 |  |  |  |  |
